Read-outs that look alike come from different tables or passages of the source.
Columns and labels:
[1] = target: T1, BCL-XL (Homo sapiens, UniProt Q07817); experiment: Bcl-xL ELISA degradation in MOLT-4 cells, 6 h; assay type: cell-based; conditions: for DC50: read-out: Bcl-xL ELISA in MOLT-4 degradation 6 h: Mean external-Abs DC50
T1 construct: endogenous in cells; host or cells: MOLT-4
Method: The letter codes for BCL-XL DC50 include: A (<0.01 μM); B (0.01-0.1 μM); C (>[…]); D (>0.5-1.0 μM); and E (>1.0 μM). The letter codes for Dmax % include A (>75%); B (50 to 75%); C (<50%).

[2] = system: MOLT-4 cells; experiment: CTG (CellTiter-Glo) cell viability assay, MOLT-4; assay type: cell-based; conditions: Homo sapiens, 3 day incubation, read-out: CTG Cell Viability Assay - MOLT-4 3 day: Average external-IC50
Method: Compound-mediated viability effect on MOLT-4 and Caki-2 was quantitatively determined using the CellTiter-Glo® Luminescent Cell Viability Assay kit from Promega (Catalog number G7570) following manufacturer's recommended procedures. Briefly, MOLT-4 and Caki-2 cells were seeded into 384 well plates (Grenier Bio-One, Catalog number 781080) with a density of 10,000 cells per well. Compounds were then added to the assay plate with final top concentration of 10 μM and 1:3 dilution series with total of 9 doses. The final DMSO concentration is normalized to 0.2%. The assay plates were incubated at 37° C., for 3 days under 5% CO2. Then the assay plate was equilibrated at room temperature for 10 minutes. To determine cell viability, 30 uL CellTiter Glo reagent was added to each well and the assay plate was centrifuged at 1000 rpm for 30 second, incubated at room temperature for 10 min, and analyzed by detecting the luminescence using a multimode plate reader (EnVision 2105, PerkinElmer). The data was then analyzed by software Prism 7.0 from GraphPad and the dose response curves are fit using a three-parameter logistic equation to calculate IC50.
The letter codes for MOLT-4 IC50 include: A (<0.1 μM); B (0.1-1.0 μM); C (>1.0-3.0 μM); and D (>3.0 μM). The letter codes for Caki-2 IC50 include: A (<0.1 μM); B (0.1-1.0 μM); C (>1.0-10.0 μM); and D (>10.0 μM).

T1 sequence (Q07817 whole entry): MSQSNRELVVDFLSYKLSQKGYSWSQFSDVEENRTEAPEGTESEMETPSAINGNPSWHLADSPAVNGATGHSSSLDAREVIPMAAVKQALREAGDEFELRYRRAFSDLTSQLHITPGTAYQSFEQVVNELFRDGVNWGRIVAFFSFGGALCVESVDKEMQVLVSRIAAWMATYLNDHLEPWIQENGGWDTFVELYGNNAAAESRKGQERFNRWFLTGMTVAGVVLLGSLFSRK

SMILES | Dmax [1] [%] | IC50 ([2]; MOLT-4, 72 h) [nM] | DC50 [1] [nM] | IC50 ([2]; 72 h) [nM]
Cc1ncsc1-c1ccc([C@H](C)NC(=O)[C@@H]2C[C@@H](O)CN2C(=O)[C@@H](NC(=O)CCCCCCCOc2nc(N3CCc4cccc(C(=O)Nc5nc6ccccc6s5)c4C3)ccc2-c2cnn(CC3CCCCC3)c2C)C(C)(C)C)cc1 [I-218] | < 50 | > 3000 | – | –
Cc1ncsc1-c1ccc(CNC(=O)[C@@H]2C[C@@H](O)CN2C(=O)[C@@H](NC(=O)C2(F)CC2)C(C)(C)C)c(OCCc2ccc(S(=O)(=O)NC(=O)c3nc(N4CCc5cccc(C(=O)Nc6nc7ccccc7s6)c5C4)ccc3-c3cnn(CC4CCCCC4)c3C)cc2)c1 [I-219] | > 75 | 100 to 1000 | 10 to 100 | –
Cc1ncsc1-c1ccc([C@H](C)NC(=O)[C@@H]2C[C@@H](O)CN2C(=O)[C@@H](NC(=O)CN(C)CCCS(=O)(=O)NC(=O)c2nc(N3CCc4cccc(C(=O)Nc5nc6ccccc6s5)c4C3)ccc2-c2cnn(CC3CCCCC3)c2C)C(C)(C)C)cc1 [I-220] | > 75 | – | < 10 | < 100
Cc1ncsc1-c1ccc([C@H](C)NC(=O)[C@@H]2C[C@@H](O)CN2C(=O)[C@@H](NC(=O)CCCCN(C)CCCCNC(=O)c2nc(N3CCc4cccc(C(=O)Nc5nc6ccccc6s5)c4C3)ccc2-c2cnn(CC3CCCCC3)c2C)C(C)(C)C)cc1 [I-221] | < 50 | > 3000 | > 1000 | –
Cc1ncsc1-c1ccc(CNC(=O)[C@@H]2C[C@@H](O)CN2C(=O)[C@@H](NC(=O)C2(F)CC2)C(C)(C)C)c(OCCCCCCNCc2nc(N3CCc4cccc(C(=O)Nc5nc6ccccc6s5)c4C3)ccc2-c2cnn(CC3CCCCC3)c2C)c1 [I-222] | < 50 | 1000 to 3000 | – | –
Cc1ncsc1-c1ccc([C@H](C)NC(=O)[C@@H]2C[C@H](O)CN2C(=O)[C@@H](NC(=O)CCCCCS(=O)(=O)NC(=O)c2nc(N3CCc4cccc(C(=O)Nc5nc6ccccc6s5)c4C3)ccc2-c2cnn(CC34CC5CC(CC(C5)C3)C4)c2C)C(C)(C)C)cc1 [I-286] | 50 to 75 | 100 to 1000 | 10 to 100 | –
Cc1ncsc1-c1ccc([C@H](C)NC(=O)[C@@H]2C[C@@H](O)CN2C(=O)[C@@H](NC(=O)Cc2ccc(S(=O)(=O)NC(=O)c3nc(N4CCc5cccc(C(=O)Nc6nc7ccccc7s6)c5C4)ccc3-c3cnn(CC4CCCCC4)c3C)cc2)C(C)(C)C)cc1 [I-287] | > 75 | 100 to 1000 | 10 to 100 | –
Cc1ncsc1-c1ccc([C@H](C)NC(=O)[C@@H]2C[C@@H](O)CN2C(=O)[C@H](c2cc(OCC3CCN(CCNC(=O)c4nc(N5CCc6cccc(C(=O)Nc7nc8ccccc8s7)c6C5)ccc4-c4cnn(CC5CCCCC5)c4C)CC3)no2)C(C)C)cc1 [I-288] | 50 to 75 | 100 to 1000 | 500 to 1000 | –
Cc1ncsc1-c1ccc([C@H](C)NC(=O)[C@@H]2C[C@@H](O)CN2C(=O)[C@@H](c2cc(OCC3CCN(CCNC(=O)c4nc(N5CCc6cccc(C(=O)Nc7nc8ccccc8s7)c6C5)ccc4-c4cnn(CC5CCCCC5)c4C)CC3)no2)C(C)C)cc1 [I-289] | 50 to 75 | 100 to 1000 | 10 to 100 | –
Cc1ncsc1-c1ccc(CNC(=O)[C@@H]2C[C@H](O)CN2C(=O)[C@@H](NC(=O)C2(F)CC2)C(C)(C)C)c(OCCCCCS(=O)(=O)NC(=O)c2nc(N3CCc4cccc(C(=O)Nc5nc6ccccc6s5)c4C3)ccc2-c2cnn(CC34CC5CC(CC(C5)C3)C4)c2C)c1 [I-290] | 50 to 75 | 100 to 1000 | 100 to 500 | –
Cc1ncsc1-c1ccc([C@H](C)NC(=O)[C@@H]2C[C@@H](O)CN2C(=O)[C@@H](NC(=O)C2CCN(c3ccc(S(=O)(=O)NC(=O)c4nc(N5CCc6cccc(C(=O)Nc7nc8ccccc8s7)c6C5)ccc4-c4cccc(OC(C)C)c4C)cc3)CC2)C(C)(C)C)cc1 [I-305] | < 50 | 1000 to 3000 | > 1000 | –
Cc1ncsc1-c1ccc([C@H](C)NC(=O)[C@@H]2C[C@@H](O)CN2C(=O)[C@@H](c2cc(OC3CCN([C@H]4CC[C@H](NC(=O)c5nc(N6CCc7cccc(C(=O)Nc8nc9ccccc9s8)c7C6)ccc5-c5cnn(CC6CCCCC6)c5C)CC4)CC3)no2)C(C)C)cc1 [I-313] | < 50 | 1000 to 3000 | > 1000 | –
